Laboratory results taken from patent publication US20260191825A1, “CONTRACEPTIVE COMPOUNDS AND DOSING FOR THE SAME” (YourChoice Therapeutics, Inc., priority 2024, published 2026).
Values joined by “and” are separate entries in the source; they are usually repeats but may differ in a detail not shown here. Equal values may be shown once. “Also recorded” adds a separate entry of the source.

How the values were obtained:
[1] = biological target: hERG (Homo sapiens, UniProt Q12809); assay: hERG GLP safety pharmacology study
[2] = test system: central nervous system (CNS); assay: Rat FOB / CNS safety pharmacology study; assay type: in vivo; settings: male Sprague Dawley rats, single oral doses of 3, 10 or 30 mg/kg
[3] = Phase 1a single ascending oral dose study, PK; settings: male, human, in vivo, fasted, geometric mean; for AUC(0-t): po
[4] = test system: healthy vasectomized men; assay: Phase 1a single ascending oral dose study, safety and tolerability; assay type: in vivo, human
Description: The doses tested under fasting conditions were 10, 30, 90 and 180 mg. […] Cohort 1 first received 10 mg, and after a 5-week washout period received 30 mg. Cohort 2 received 90 mg followed by 180 mg after a 5-week washout period.

[5] = Rat single dose GLP study (toxicity, sperm parameters); assay type: in vivo; settings: male, in vivo; rat, single dose; highest dose tested
Source text: (§1) No efficacy was observed after single dose studies in the rat.

[6] = test system: male rats; assay: as above; assay type: in vivo
Source text: as §1

[7] = test system: mice; assay: Repeat dose study in mice (sperm counts); assay type: in vivo, mouse
[8] = test system: rats; assay: Rat repeat dose non-GLP efficacy study (sperm counts, MABEL); assay type: in vivo
Description: Rat testicular toxicity reversibility characteristics and findings after repeat dosing are discussed in Section 3.1.4.
Rat 35-day repeat dose non-GLP study with a MABEL of 0.75 mg/kg/day.

[9] = In vitro stability in liver microsomes (human); assay type: in vitro ADME
Description: (§2) Respective half-lives (T1/2) were 9.5 hours (human), 23.1 hours (monkeys), >23.1 hours (mice), >23.1 hours (rats), 19.6 hours (rabbits), and >23.1 hours (dogs).

[10] = In vitro stability in microsomes (dog); assay type: in vitro ADME; settings: dogs
Description: as §2

[11] = Metabolite identification in pooled hepatocytes (all species); assay type: in vitro ADME, human, monkey, mouse, rat, rabbit, dog
Source text: Overall, each metabolite was present at less than 10% of the recoverable metabolic profile across all species. The rat produced 6 of the 8 quantified human metabolites and the dog produced 4 of the 8 human metabolites. […] Because the presence of these metabolites was ≤10% of the recoverable metabolic profile, and because all other human metabolites were represented in either the rat or dog, these 2 species were considered relevant species to assess toxicity.

[12] = biological target: CYP1A2 (Homo sapiens, UniProt P05177); assay: In vitro CYP inhibition (direct and time-dependent), CYP1A2; assay type: in vitro ADME
Source text: (§3) However, the likelihood of drug interactions is low since healthy participants who meet eligibility criteria will be enrolled in this Phase 1b/2a clinical trial. An allowance for select concomitant medications may be considered for select participants at the discretion of the investigator and/or sponsor if drug profiles are not anticipated to interact with Compound A. Such medications may include, but will not be limited to paracetamol or ibuprofen as assessed by both the PI and the Sponsor. […] Additional precautions to avoid grapefruit, pomegranates, star fruit, or Seville oranges for 7 days prior to admission, and juices and products containing these fruits for the duration of the study will be taken.

[13] = test system: CYP3A4/5; assay: In vitro CYP inhibition (direct and time-dependent), CYP3A4/5; assay type: in vitro ADME; settings: human
Source text: as §3

[14] = test system: rat; assay: Rat repeat daily dosing at non-tolerated doses; assay type: in vivo
Description: These doses convert to respective Human Equivalent Doses (HEDs) of ≥1,612.8 mg and ≥444.8 mg fixed dose based on 80 kg body weight. […] Safety laboratory analyses include serum chemistry, hematology, coagulation, and lipid panel.

[15] = test system: mice, rats, dogs and NHPs; assay: Research in nonclinical models (mice, rats, dogs and NHPs); assay type: in vivo, mouse, rat, dog, NHP
[16] = Dog single dose cardiovascular study; settings: male, Beagle, dog, in vivo
[17] = test system: male Beagle dogs; assay: Dog single dose cardiovascular study; settings: male Beagle dogs, single dose 2.5, 5 or 25 mg/kg
[18] = test system: male Sprague Dawley rats; assay: Rat 28-day repeat-dose GLP toxicity study; set-up: NOAEL increase over the minimum efficacious dose in rats: dose or concentration left out as unconfirmed
[19] = Dog GLP 28-day repeat-dose study, PK at the NOAEL; settings: male, Beagle, in vivo, 5 mg/kg, 5 mg/kg (NOAEL); for AUC(0-t): AUC0-24, dog
[20] = rat, 3, 10 or 30 mg/kg/day for 28 days

Chain of CYP1A2 (P05177 whole entry): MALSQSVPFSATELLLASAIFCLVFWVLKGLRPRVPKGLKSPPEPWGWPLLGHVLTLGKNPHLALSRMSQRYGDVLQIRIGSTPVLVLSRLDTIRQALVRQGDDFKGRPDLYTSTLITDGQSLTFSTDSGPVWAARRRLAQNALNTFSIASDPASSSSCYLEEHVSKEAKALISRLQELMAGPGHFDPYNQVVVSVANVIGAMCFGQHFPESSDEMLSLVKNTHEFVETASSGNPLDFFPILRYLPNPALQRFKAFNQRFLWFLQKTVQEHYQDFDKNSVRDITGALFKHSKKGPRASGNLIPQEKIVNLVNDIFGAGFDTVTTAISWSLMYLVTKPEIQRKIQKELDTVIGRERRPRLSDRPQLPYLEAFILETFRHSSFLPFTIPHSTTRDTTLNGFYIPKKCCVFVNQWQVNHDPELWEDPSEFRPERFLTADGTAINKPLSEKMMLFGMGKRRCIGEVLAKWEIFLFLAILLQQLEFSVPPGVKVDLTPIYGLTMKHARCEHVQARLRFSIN
Chain of hERG (Q12809 whole entry): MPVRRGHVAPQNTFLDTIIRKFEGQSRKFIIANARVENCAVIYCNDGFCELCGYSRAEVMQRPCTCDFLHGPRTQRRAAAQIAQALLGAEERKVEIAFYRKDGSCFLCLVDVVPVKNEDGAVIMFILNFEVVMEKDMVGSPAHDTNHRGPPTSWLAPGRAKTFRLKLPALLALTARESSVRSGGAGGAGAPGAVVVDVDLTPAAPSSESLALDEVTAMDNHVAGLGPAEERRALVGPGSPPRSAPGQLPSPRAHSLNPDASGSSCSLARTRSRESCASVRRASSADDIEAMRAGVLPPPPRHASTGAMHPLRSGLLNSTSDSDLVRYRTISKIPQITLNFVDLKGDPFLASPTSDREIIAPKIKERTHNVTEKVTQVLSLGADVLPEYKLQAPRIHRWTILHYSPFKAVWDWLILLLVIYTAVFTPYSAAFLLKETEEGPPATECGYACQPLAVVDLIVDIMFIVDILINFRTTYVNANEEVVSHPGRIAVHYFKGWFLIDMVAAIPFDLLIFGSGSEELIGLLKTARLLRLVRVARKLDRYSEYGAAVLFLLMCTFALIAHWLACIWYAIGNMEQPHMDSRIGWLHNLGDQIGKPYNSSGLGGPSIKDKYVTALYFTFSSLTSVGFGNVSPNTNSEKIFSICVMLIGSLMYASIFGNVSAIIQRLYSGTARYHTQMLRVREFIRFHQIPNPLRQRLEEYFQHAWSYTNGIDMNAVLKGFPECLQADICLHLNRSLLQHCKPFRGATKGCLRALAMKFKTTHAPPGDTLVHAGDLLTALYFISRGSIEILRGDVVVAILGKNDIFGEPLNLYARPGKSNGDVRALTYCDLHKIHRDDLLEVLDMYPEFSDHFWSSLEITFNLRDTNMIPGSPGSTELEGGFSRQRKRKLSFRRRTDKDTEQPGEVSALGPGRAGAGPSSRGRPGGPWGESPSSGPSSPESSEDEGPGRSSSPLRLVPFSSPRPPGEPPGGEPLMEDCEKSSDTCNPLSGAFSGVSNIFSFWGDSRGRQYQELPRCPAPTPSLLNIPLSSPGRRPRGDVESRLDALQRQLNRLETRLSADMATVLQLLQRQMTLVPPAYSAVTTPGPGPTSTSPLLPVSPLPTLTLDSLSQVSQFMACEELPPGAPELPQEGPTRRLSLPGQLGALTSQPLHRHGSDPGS

Cc1ccc(C2=CC(C)(C)Oc3ccc(-c4ccc(-c5ccc(C(=O)O)cc5)[nH]4)cc32)cc1 [Compound A]
Main outcomes: hERG [1]: Clean | Main outcomes: rat FOB (adverse effects on CNS) [2]: no adverse effects; also recorded: Clean | AUC(0-t) ([3]; 10 mg, single oral dose 10 mg, read-out: AUC0-24): 2380 ng·h/mL | AUC(0-t) ([3]; 10 mg, single oral dose 10 mg, read-out: AUC0-last): 8180 ng·h/mL | AUC(0-t) ([3]; 30 mg, single oral dose 30 mg, read-out: AUC0-24): 3520 ng·h/mL | AUC(0-t) ([3]; 30 mg, single oral dose 30 mg, read-out: AUC0-last): 12400 ng·h/mL | AUC(0-t) ([3]; 90 mg, single oral dose 90 mg, read-out: AUC0-24): 8430 ng·h/mL | AUC(0-t) ([3]; 90 mg, single oral dose 90 mg, read-out: AUC0-last): 26300 ng·h/mL | AUC(0-t) ([3]; 180 mg, single oral dose 180 mg, read-out: AUC0-24): 27300 ng·h/mL | AUC(0-t) ([3]; 180 mg, single oral dose 180 mg, read-out: AUC0-last): 73400 ng·h/mL | AUC(0-inf) ([3]; single oral dose 10 mg): 9560 ng·h/mL | Cmax ([3]; single oral dose 10 mg): 131 ng/mL | half-life ([3]; single oral dose 10 mg): 53.5 h | AUC(0-inf) ([3]; single oral dose 30 mg): 12900 ng·h/mL | Cmax ([3]; single oral dose 30 mg): 200 ng/mL | half-life ([3]; single oral dose 30 mg): 61.7 h | AUC(0-inf) ([3]; single oral dose 90 mg): 26800 ng·h/mL | Cmax ([3]; single oral dose 90 mg): 472 ng/mL | half-life ([3]; single oral dose 90 mg): 71.3 h | AUC(0-inf) ([3]; single oral dose 180 mg): 75400 ng·h/mL | Cmax ([3]; single oral dose 180 mg): 1750 ng/mL | half-life ([3]; single oral dose 180 mg): 76.3 h | Adverse event possibly related to study treatment ([4]; after the 30 mg dose): decreased sex drive in 1 participant | Adverse event possibly related to study treatment ([4]; after the 180 mg dose, Holter monitoring, 1 participant): asymptomatic cardiac arrhythmia of low clinical concern | Serious adverse events (SAEs) ([4]; single doses 10, 30, 90, 180 mg, fasting): no serious adverse events | Adverse events classified as possibly related to study treatment (number) ([4]; single doses 10-180 mg): two | Safety and tolerability ([4]; single doses up to 180 mg, fasted state, healthy volunteers): safe and well tolerated | NOAEL at 15 days [5]: 1000 mg/kg | Tolerated single dose (highest dose tested) ([6]; male rats, GLP study): 1,000 mg/kg | Human dose 60 kg, safety factor 10 ([6]; male, rat, in vivo, 15 days): 967.74 mg | HED ([6]; rat, single dose 1,000 mg/kg): 161.3 mg/kg and 161.29 mg/kg | Impact on sperm parameters after single dose ([6]; rats, single doses as high as 1,000 mg/kg, Day 15 post dose): no impact on sperm parameters | Reversibility of antispermatogenic effect ([7]; mice): ≤ 1 spermatogenic cycle | Lowest dose with decreases in sperm counts ([7]; mouse, repeat dose for 4 weeks): 2.5 mg/kg/day | HED (based on BSA) of MABEL ([8]; rat): 0.1 mg/kg | HED for 60 kg BW of MABEL ([8]; rat): 7.2 mg | HED for 80 kg BW of MABEL ([8]; rat): 9.6 mg | MABEL ([8]; rat, 35-day repeat dose non-GLP): 0.75 mg/kg/day | Lowest dose with decreases in sperm counts / minimum efficacious dose in rats ([8]; rat, repeat dose for 36 days): 0.75 mg/kg/day | Recovery from disruption of spermatogenesis ([8]; rats, 28-day dosing at 0.75 mg/kg/day and 1 mg/kg/day): recover from disruption of spermatogenesis | Half-life (T1/2) in microsomes [9]: 9.5 h | half-life ([10]; dog, read-out: Half-life (T1/2) in microsomes): > 23.1 h | Compound remaining intact ([10]; 90 minutes): 101% | Metabolites yielded by biotransformation ([11]; 10 μM, pooled hepatocytes): 10 metabolites | Human metabolites produced (of the 8) ([11]; dog hepatocytes): 4 | Quantified human metabolites produced (of the 8) ([11]; rat hepatocytes): 6 | IC50 ([12]; CYP1A2): 30.1 µM | Time-dependent inhibition (TDI) ([12]; CYP1A2, 0.3 to 100 μM): no TDI potential | IC50 ([13]; CYP3A4/5, midazolam as substrate): 58.6 µM | IC50 ([13]; CYP3A4/5, testosterone as substrate): 53.6 µM | HED of not tolerated dose, fixed dose based on 80 kg body weight [14]: ≥ 1,612.8 mg | Not tolerated repeat daily dose (death and morbidity) [14]: ≥ 125 mg/kg/day | Systems affected at non-tolerated doses [14]: hematopoietic, hepatic, adrenal and lymphoid systems were affected | Testosterone levels ([15]; mice, rats, dogs and NHPs): does not alter testosterone levels | Virility ([15]; mice, rats, dogs and NHPs): does not affect virility | Repeat dosing after which impairment of fertility / reduction of sperm counts was shown ([15]; nonclinical models): 3-4 weeks | NOAEL [16]: 25 mg/kg | Main outcomes: dog cardiovascular (effects) [17]: no effects; also recorded: Clean | NOAEL increase over the minimum efficacious dose in rats ([18]; rat NOAEL […] mg/kg/day, based on exposure): 40 fold | Prostate weight [18, 20]: unchanged | Recovery from testicular effects [18, 20]: very slow | Testosterone levels ([18]; rat, 3, 10 or 30 mg/kg/day for 28 days, inferred from prostate weight): did not change testosterone levels | AUC(0-t) ([19]; Day 1, mean): 43800 ng·h/mL | AUC(0-t) ([19]; Day 28, mean): 80800 ng·h/mL | Cmax ([19]; Day 1, n = 9, mean): 3410 ng/mL | Cmax ([19]; Day 28, mean): 4800 ng/mL | half-life ([19]; T1/2, dog, Day 1, median): 13.9 h | Tmax ([19]; Tmax, Day 28, median): 2 h
